{"source": "patent US20080171117A1", "about": "“METHODS FOR REDUCING MICROBIAL CONTAMINATION IN SEAFOOD PROCESSING” (Tasker Products Corp., priority 2004, published 2008)", "key": {"[1]": {"system": "Coliform", "assay": "Treated salmon under refrigeration: Coliform", "settings": "Treated With O3"}, "[2]": {"system": "SPC", "assay": "Treated salmon under refrigeration: SPC", "settings": "Treated With O3"}}, "data": [{"smiles": "O=[O+][O-]", "note": "[O3, Ozone]", "values": [{"measurement": "Coliform", "setting": "[1]; day 3", "result": 0.5}, {"measurement": "Coliform", "setting": "[1]; day 6", "result": 0.5}, {"measurement": "Coliform", "setting": "[1]; day 8", "result": 0.5}, {"measurement": "Coliform", "setting": "[1]; day 9", "result": 0.5}, {"measurement": "Coliform", "setting": "[1]; day 10", "result": 0.5}, {"measurement": "Log SPC", "setting": "[2]; day 3", "result": 0}, {"measurement": "SPC", "setting": "[2]; day 3", "result": 1}, {"measurement": "Log SPC", "setting": "[2]; day 6", "result": 0}, {"measurement": "SPC", "setting": "[2]; day 6", "result": 1}, {"measurement": "Log SPC", "setting": "[2]; day 8", "result": 1.643}, {"measurement": "SPC", "setting": "[2]; day 8", "result": 44}, {"measurement": "Log SPC", "setting": "[2]; day 9", "result": 0}, {"measurement": "SPC", "setting": "[2]; day 9", "result": 1}, {"measurement": "Log SPC", "setting": "[2]; day 10", "result": 1.146}, {"measurement": "SPC", "setting": "[2]; day 10", "result": 14}]}]}
